The text below walks through data of US9255073B2, “1-benzyl-3-hydroxymethylindazole derivatives and use thereof in the treatment of diseases based on the expression of MCP-1, CX3CR1 and p40” (AZIENDE CHIM. RIUN. ANG. FRANC. A.C.R.A.F. S.p.A., priority 2008, dated 2016).

Usually inhibition stands for the relative decrease from the control value, in per cent. A lower inhibition goes with a weak effect. What is called melting point is the temperature, or range, at which the solid turns liquid.

Data set [1] concerns MCP-1. As to the kind of experiment: Gene expression of MCP-1 in LPS-stimulated MonoMac6 cells (real-time RT-PCR). Type of data set: cell-based, human. Conditions: MonoMac6, 1 h preincubation, LPS 100 ng/ml 4 h. The protocol: The capacity of the compounds to inhibit the expression of MCP-1 by lipopolysaccharide (LPS)-stimulated MonoMac6 cells was evaluated. The cells were placed in 96-well plates at a concentration of 50 000 cells/well. The compounds were tested at the maximum soluble concentration given in Table 1 (in the range 30-300 μM) and incubated for 1 hour. The cells were then stimulated with LPS (100 ng/ml) for 4 hours.
(§1) The total RNA was extracted from the cell pellet using the RNeasy mini kit (Qiagen), reverse-transcribed with the TaqMan Reverse transcription reagents synthesis kit (Applied Biosystems) and the cDNA obtained was used for the real-time PCR reaction. The amplification was obtained in 96-well plates using the ABI Prism 7000 sequence detection system (Applied Biosystems), by applying the following temperature profile: 50° C. for 2 minutes, 95° C. for 10 minutes and 45 cycles at 95° C. for 15 seconds and 60° C. for 1 minute. For the amplification, a set of primers and probe specific for human MCP-1 was used (Applied Biosystems, RefSeq NM_002982.3). A set of primers and probe for β-actin was used in separate wells as an internal control of the samples for the purposes of normalization. Once the reaction had taken place, the fluorescence data were analysed using the ABI Prism 7000 SDS software, by calculating the threshold cycle (Ct) for each sample and subsequently performing a relative quantification via the ΔΔCt method.

For another data set, the system named is CX3CR1. Description: Gene expression of CX3CR1 in LPS-stimulated MonoMac6 cells (real-time RT-PCR). As to conditions: MonoMac6, 1 h preincubation, LPS 100 ng/ml 20 h. Type of data set: cell-based, human. The protocol: The capacity of the compounds to inhibit the expression of CX3CR1 by lipopolysaccharide (LPS)-stimulated MonoMac6 cells was evaluated. The cells were placed in 96-well plates at a concentration of 50 000 cells/well. The compounds were tested at the maximum soluble concentration given in Table 3 (in the range 30-300 μM) and incubated for 1 hour. The cells were then stimulated with LPS (100 ng/ml) for 20 hours.
as §1, with “CX3CR1” for “MCP-1”, “NM_001337.3).” for “NM_002982.3).”

The test system of the next data set is p40. As to the kind of experiment: Gene expression of p40 in LPS-stimulated MonoMac6 cells (real-time RT-PCR). It is filed as cell-based, human. Conditions: MonoMac6, 1 h preincubation, LPS 100 ng/ml 4 h. The protocol: The capacity of the compounds to inhibit the expression of p40 by lipopolysaccharide (LPS)-stimulated MonoMac6 cells was evaluated. The cells were placed in 96-well plates at a concentration of 50 000 cells/well. The compounds were tested at the maximum soluble concentration given in Table 4 (in the range 30-300 μM) and incubated for 1 hour. The cells were then stimulated with LPS (100 ng/ml) for 4 hours.
as §1, with “p40” for “MCP-1”, “NM_002187.2).” for “NM_002982.3).”
In general terms: Quantitative PCR measures a nucleic acid by following its amplification.

The test system of data set [2] is MCP-1. As to the kind of experiment: Production of MCP-1 protein by LPS-stimulated MonoMac6 cells (ELISA). Conditions: Homo sapiens, MONO-MAC-6, MonoMac6, 1 h preincubation, LPS 100 ng/ml 20 h, ELISA of supernatant; for inhibition at 150 µM: 150 μM (maximum soluble concentration); for inhibition at 75 µM: 75 μM (maximum soluble concentration); for inhibition at 30 µM: 30 μM (maximum soluble concentration). Type of data set: cell-based. As to the method: The capacity of the compounds to inhibit the expression of the protein MCP-1 by lipopolysaccharide (LPS)-stimulated MonoMac6 cells was evaluated. The cells were placed in 96-well plates at a concentration of 50 000 cells/well. The compounds were tested at the maximum soluble concentration given in Table 2 (in the range 30-300 μM) and incubated for 1 hour. The cells were then stimulated with LPS (100 ng/ml) for 20 hours.
The amount of MCP-1 produced was measured in the supernatants, suitably diluted with buffer, by means of an immunoenzymatic test (ELISA) using a commercial kit (ELISA MCP-1/JE, R&D Systems).
(In general: An ELISA detects its analyte on a solid surface through an enzyme-linked reagent.)

The mark [3] stands for this setting: 150 μM (maximum soluble concentration).
[4] abbreviates: 30 μM (maximum soluble concentration).
Where [5] appears, read: 300 μM (maximum soluble concentration).

Counter-ions that a name gives are not always drawn.

For `OCc1nn(Cc2ccccc2)c2ccccc12` [Compound 1, 1-benzyl-3-hydroxymethyl-indazole], the “% inhibition of MCP-1 expression (mRNA)” value with MCP-1 [1] (setting [3]) worked out at 30%. The “% inhibition of CX3CR1 expression (mRNA)” value in the data set with CX3CR1 (setting [3]) was 72%. Further, the “% inhibition of p40 expression (mRNA)” value in the data set on p40 (setting [3]) came to 32%. The inhibition at 150 µM with MCP-1 [2] was 54%.
For the compound `COc1ccc(Cn2nc(CO)c3ccccc32)cc1` [Compound 2, [1-(4-methoxybenzyl)-1H-indazol-3-yl]methanol], the melting point fell in the range of 95 to 97 °C.
Take `OCc1nn(Cc2ccc(Cl)cc2)c2ccccc12` [Compound 4, [1-(4-chlorobenzyl)-1H-indazol-3-yl]methanol]: at 75 µM the inhibition in the data set on MCP-1 [2] was 85%.
In the data set with MCP-1 [2], `OCc1nn(Cc2ccc(Cl)cc2Cl)c2ccccc12` [Compound 6, [1-(2,4-dichlorobenzyl)-1H-indazol-3-yl]methanol] registered an inhibition at 30 µM of 54%.
Turning to `Cc1cc(Cl)ccc1Cn1nc(CO)c2ccccc21` [Compound 8, [1-(4-chloro-2-methylbenzyl)-1H-indazol-3-yl]methanol], at 30 µM the inhibition in the data set with MCP-1 [2] was 75%.
For `COc1ccc2c(c1)c(CO)nn2Cc1ccccc1` [Compound 9, (1-benzyl-5-methoxy-1H-indazol-3-yl)methanol], the melting point lay within 97 to 98 °C.
With `Cc1cc(Cl)ccc1Cn1nc(C(C)(C)O)c2ccccc21` [Compound 10, 2-[1-(4-chloro-2-methylbenzyl)-1H-indazol-3-yl]propan-2-ol], the melting point was in the range of 72 to 74 °C. Besides, the “% inhibition of MCP-1 expression (mRNA)” value in the data set with MCP-1 [1] (setting [4]) was found to be 72%. Besides, the “% inhibition of CX3CR1 expression (mRNA)” value in the data set on CX3CR1 (setting [4]) turned out to be 89%. For the same compound, the “% inhibition of p40 expression (mRNA)” value in the data set on p40 (setting [4]) turned out to be 65%. The inhibition at 30 µM in the data set with MCP-1 [2] stood at 81%.
`CC(C)(O)c1nn(Cc2ccc(Cl)cc2Cl)c2ccccc12` [Compound 11, 2-[1-(2,4-dichlorobenzyl)-1H-indazol-3-yl]propan-2-ol] came in with an inhibition at 30 µM in the data set with MCP-1 [2] of 88%.
As to `Cc1cc(Cl)ccc1Cn1nc(C(C)O)c2ccccc21` (centres unmarked) [Compound 12, 1-[1-(4-chloro-2-methylbenzyl)-1H-indazol-3-yl]ethanol], the inhibition at 30 µM with MCP-1 [2] was determined as 76%.
Compound `OCCOCc1nn(Cc2ccccc2)c2ccccc12` [Compound 13, 2-[(1-benzyl-1H-indazol-3-yl)methoxy]ethanol] came in with a melting point of 67 to 69 °C. In the data set with MCP-1 [1] (setting [5]), the “% inhibition of MCP-1 expression (mRNA)” value stood at 55%. The “% inhibition of CX3CR1 expression (mRNA)” value in the data set on CX3CR1 (setting [5]) is 90%. In the data set on MCP-1 [2] (setting [5]), at 300 µM the inhibition was 78%.
For the compound `CN(C)CCOCc1nn(Cc2ccccc2)c2ccccc12.Cl` [Compound 14, 2-[(1-benzyl-1H-indazol-3-yl)methoxy]-N,N-dimethylethanamine hydrochloride], the “% inhibition of MCP-1 expression (mRNA)” value in the data set on MCP-1 [1] (setting [3]) was found to be 52%. Also, in the data set with CX3CR1 (setting [3]), the “% inhibition of CX3CR1 expression (mRNA)” value is on record as 96%. In the data set on MCP-1 [2], this compound had an inhibition at 150 µM of 64%.
Consider `CN(C)CCCOCc1nn(Cc2ccccc2)c2ccccc12` [Compound 15, 3-[(1-benzyl-1H-indazol-3-yl)methoxy]-N,N-dimethylpropan-1-amine hydrochloride], for which the inhibition at 75 µM in the data set on MCP-1 [2] is 44%.
`CC(C)(CO)OCc1nn(Cc2ccccc2)c2ccccc12` [Compound 17, 2-[(1-benzyl-1H-indazol-3-yl)methoxy]-2-methylpropan-1-ol]: the melting point was 52 to 53 °C. Also, in the data set on MCP-1 [1] (setting [3]), the “% inhibition of MCP-1 expression (mRNA)” value amounted to 53%. In addition, the “% inhibition of CX3CR1 expression (mRNA)” value with CX3CR1 (setting [3]) is given as 88%. The “% inhibition of p40 expression (mRNA)” value with p40 (setting [3]) is 37%. This compound also yielded an inhibition at 150 µM with MCP-1 [2] of 82%.
As for `CC(C)(CN1CCOCC1)OCc1nn(Cc2ccccc2)c2ccccc12.O=C(O)/C=C\C(=O)O` [Compound 18, 1-benzyl-3-[(1,1-dimethyl-2-morpholin-4-ylethoxy)methyl]-1H-indazole maleate], the melting point is 87 to 88 °C. The “% inhibition of p40 expression (mRNA)” value in the data set on p40 (75 μM (maximum soluble concentration)) is 39%. Further, in the data set with MCP-1 [2], the inhibition at 75 µM was 85%.
